According to the supplement of paper PMC10307832:

How the values were obtained:
Assay in all cases: relative viability (nuclei count vs DMSO), 5 days (fraction); higher = more cells survive
NCI-H2126 = system: NCI-H2126
Method in brief: (§1)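 Dosing by pin tool came one day after lung cancer cell lines were seeded in 1536-well plates, using either one drug or a fixed anchor-drug dose plus five library-drug doses (not always all listed) in √10 steps. After 5 days, nuclei were counted on 4× images. Relative viability is treated-well nuclei count divided by vehicle-well nuclei count, and values are medians of duplicate plates.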

NCI-H23 = system: NCI-H23
Method in brief: as §1

SW 1573 = system: SW 1573
Method in brief: as §1

LU99A = system: LU99A
Method in brief: as §1

NCI-H3122 = system: NCI-H3122
Method in brief: as §1

LOU-NH91 = system: LOU-NH91
Method in brief: as §1

SW 900 = system: SW 900
Method in brief: as §1

NCI-H1666 = system: NCI-H1666
Method in brief: as §1

LK-2 = system: LK-2
Method in brief: as §1

ChaGo-K-1 = system: ChaGo-K-1
Method in brief: as §1

EMC-BAC-2 = system: EMC-BAC-2
Method in brief: as §1

RERF-LC-KJ = system: RERF-LC-KJ
Method in brief: as §1

SK-LU-1 = system: SK-LU-1
Method in brief: as §1

HCC-827 = system: HCC-827
Method in brief: as §1

EPLC-272H = system: EPLC-272H
Method in brief: as §1

HCC-78 = system: HCC-78
Method in brief: as §1

LXF-289 = system: LXF-289
Method in brief: as §1

NCI-H2405 = system: NCI-H2405
Method in brief: as §1

NCI-H2085 = system: NCI-H2085
Method in brief: as §1

LCLC-103H = system: LCLC-103H
Method in brief: as §1

NCI-H322M = system: NCI-H322M
Method in brief: as §1

NCI-H1975 = system: NCI-H1975
Method in brief: as §1

## CC1(C)CCC(c2ccc(Cl)cc2)=C(CN2CCN(c3ccc(C(=O)NS(=O)(=O)c4ccc(N[C@H](CCN5CCOCC5)CSc5ccccc5)c(S(=O)(=O)C(F)(F)F)c4)cc3)CC2)C1 [Navitoclax] + CC(=O)c1c(C)c2cnc(Nc3ccc(N4CCNCC4)cn3)nc2n(C2CCCC2)c1=O [Palbociclib] (partner 0.5 µM)
NCI-H2126; first compound 0.005 µM
  relative viability: 0.35
NCI-H2126; first compound 0.01581 µM
  relative viability: 0.355
NCI-H2126; first compound 0.05 µM
  relative viability: 0.342
NCI-H2126; first compound 0.1581 µM
  relative viability: 0.303
NCI-H2126; first compound 0.5 µM
  relative viability: 0.366
NCI-H23; first compound 0.005 µM
  relative viability: 0.518
NCI-H23; first compound 0.01581 µM
  relative viability: 0.53
NCI-H23; first compound 0.05 µM
  relative viability: 0.496
NCI-H23; first compound 0.1581 µM
  relative viability: 0.446
NCI-H23; first compound 0.5 µM
  relative viability: 0.534
SW 1573; first compound 0.005 µM
  relative viability: 0.417
SW 1573; first compound 0.01581 µM
  relative viability: 0.41
SW 1573; first compound 0.05 µM
  relative viability: 0.448
SW 1573; first compound 0.1581 µM
  relative viability: 0.399
SW 1573; first compound 0.5 µM
  relative viability: 0.38
LU99A; first compound 0.005 µM
  relative viability: 0.392
LU99A; first compound 0.01581 µM
  relative viability: 0.433
LU99A; first compound 0.1581 µM
  relative viability: 0.437
LU99A; first compound 0.5 µM
  relative viability: 0.48
NCI-H3122; first compound 0.005 µM
  relative viability: 0.206
NCI-H3122; first compound 0.01581 µM
  relative viability: 0.164
NCI-H3122; first compound 0.05 µM
  relative viability: 0.225
NCI-H3122; first compound 0.1581 µM
  relative viability: 0.177
NCI-H3122; first compound 0.5 µM
  relative viability: 0.182
LOU-NH91; first compound 0.005 µM
  relative viability: 0.53
LOU-NH91; first compound 0.01581 µM
  relative viability: 0.523
LOU-NH91; first compound 0.05 µM
  relative viability: 0.441
LOU-NH91; first compound 0.1581 µM
  relative viability: 0.477
LOU-NH91; first compound 0.5 µM
  relative viability: 0.409
SW 900; first compound 0.005 µM
  relative viability: 0.565
SW 900; first compound 0.01581 µM
  relative viability: 0.651
SW 900; first compound 0.1581 µM
  relative viability: 0.55
SW 900; first compound 0.5 µM
  relative viability: 0.518
NCI-H1666; first compound 0.005 µM
  relative viability: 0.623
NCI-H1666; first compound 0.01581 µM
  relative viability: 0.69
NCI-H1666; first compound 0.05 µM
  relative viability: 0.666
NCI-H1666; first compound 0.1581 µM
  relative viability: 0.665
NCI-H1666; first compound 0.5 µM
  relative viability: 0.726
LK-2; first compound 0.005 µM
  relative viability: 0.588
LK-2; first compound 0.01581 µM
  relative viability: 0.925
LK-2; first compound 0.05 µM
  relative viability: 0.661
LK-2; first compound 0.1581 µM
  relative viability: 0.502
LK-2; first compound 0.5 µM
  relative viability: 0.758
ChaGo-K-1; first compound 0.005 µM
  relative viability: 0.971
ChaGo-K-1; first compound 0.01581 µM
  relative viability: 0.926
ChaGo-K-1; first compound 0.05 µM
  relative viability: 0.492
ChaGo-K-1; first compound 0.1581 µM
  relative viability: 0.903
ChaGo-K-1; first compound 0.5 µM
  relative viability: 0.954
EMC-BAC-2; first compound 0.005 µM
  relative viability: 0.522
EMC-BAC-2; first compound 0.01581 µM
  relative viability: 0.533
EMC-BAC-2; first compound 0.05 µM
  relative viability: 0.532
EMC-BAC-2; first compound 0.1581 µM
  relative viability: 0.5
EMC-BAC-2; first compound 0.5 µM
  relative viability: 0.507
RERF-LC-KJ; first compound 0.005 µM
  relative viability: 1.06
RERF-LC-KJ; first compound 0.01581 µM
  relative viability: 1.01
RERF-LC-KJ; first compound 0.05 µM
  relative viability: 1.14
RERF-LC-KJ; first compound 0.1581 µM
  relative viability: 1.07
RERF-LC-KJ; first compound 0.5 µM
  relative viability: 1.01
SK-LU-1; first compound 0.005 µM
  relative viability: 0.396
SK-LU-1; first compound 0.01581 µM
  relative viability: 0.508
SK-LU-1; first compound 0.05 µM
  relative viability: 0.337
SK-LU-1; first compound 0.1581 µM
  relative viability: 0.384
SK-LU-1; first compound 0.5 µM
  relative viability: 0.414
HCC-827; first compound 0.005 µM
  relative viability: 0.582
HCC-827; first compound 0.01581 µM
  relative viability: 0.528
HCC-827; first compound 0.05 µM
  relative viability: 0.374
HCC-827; first compound 0.1581 µM
  relative viability: 0.477
HCC-827; first compound 0.5 µM
  relative viability: 0.437
EPLC-272H; first compound 0.005 µM
  relative viability: 0.325
EPLC-272H; first compound 0.05 µM
  relative viability: 0.324
EPLC-272H; first compound 0.1581 µM
  relative viability: 0.31
EPLC-272H; first compound 0.5 µM
  relative viability: 0.297
HCC-78; first compound 0.005 µM
  relative viability: 0.509
HCC-78; first compound 0.01581 µM
  relative viability: 0.428
HCC-78; first compound 0.05 µM
  relative viability: 0.441
HCC-78; first compound 0.1581 µM
  relative viability: 0.448
HCC-78; first compound 0.5 µM
  relative viability: 0.489
LXF-289; first compound 0.005 µM
  relative viability: 0.589
LXF-289; first compound 0.01581 µM
  relative viability: 0.658
LXF-289; first compound 0.05 µM
  relative viability: 0.547
LXF-289; first compound 0.1581 µM
  relative viability: 0.606
LXF-289; first compound 0.5 µM
  relative viability: 0.627
NCI-H2405; first compound 0.005 µM
  relative viability: 0.501
NCI-H2405; first compound 0.01581 µM
  relative viability: 0.562
NCI-H2405; first compound 0.05 µM
  relative viability: 0.562
NCI-H2405; first compound 0.1581 µM
  relative viability: 0.511
NCI-H2405; first compound 0.5 µM
  relative viability: 0.506
NCI-H2085; first compound 0.005 µM
  relative viability: 0.45
NCI-H2085; first compound 0.01581 µM
  relative viability: 0.456
NCI-H2085; first compound 0.05 µM
  relative viability: 0.379
NCI-H2085; first compound 0.1581 µM
  relative viability: 0.482
NCI-H2085; first compound 0.5 µM
  relative viability: 0.502
LCLC-103H; first compound 0.005 µM
  relative viability: 0.453
LCLC-103H; first compound 0.01581 µM
  relative viability: 0.487
LCLC-103H; first compound 0.05 µM
  relative viability: 0.486
LCLC-103H; first compound 0.1581 µM
  relative viability: 0.443
LCLC-103H; first compound 0.5 µM
  relative viability: 0.418
NCI-H322M; first compound 0.005 µM
  relative viability: 0.522
NCI-H322M; first compound 0.01581 µM
  relative viability: 0.534
NCI-H322M; first compound 0.05 µM
  relative viability: 0.476
NCI-H322M; first compound 0.1581 µM
  relative viability: 0.479
NCI-H322M; first compound 0.5 µM
  relative viability: 0.499
NCI-H1975; first compound 0.005 µM
  relative viability: 0.533
NCI-H1975; first compound 0.01581 µM
  relative viability: 0.661
NCI-H1975; first compound 0.05 µM
  relative viability: 0.437
NCI-H1975; first compound 0.1581 µM
  relative viability: 0.532
NCI-H1975; first compound 0.5 µM
  relative viability: 0.585
